The source of these data is patent US20220257569A1, “INDOLE-OXADIAZOLE COMPOUNDS AND THEIR THERAPEUTIC USE” (THE GOVERNING COUNCIL OF THE UNIVERSITY OF TORONTO, priority 2018, published 2022).

In one data set the test system is mice fed a HFD diet. Kind of data set: Non-alcoholic fatty liver disease (NAFLD) model, high fat diet mice. The class given is in vivo. Here is the method:
Hepatic triglycerides were measured using an ethanolic-KOH saponification method for lysing liver tissue and hydrolyzing triglyceride molecules to release free glycerol.
Serum ALT, a marker for liver damage, was assessed using an Infinity™ ALT Liquid Stable Reagent (ThermoFisher).
A) A representative vehicle-treated liver is characterized by extensive cytoplasmic clearing indicative of both microvesicular and macrovesicular steatosis. […] Formalin-fixed livers were sectioned at […] and stained using standard H&E staining.
A) A representative vehicle-treated liver is characterized by regions of large ORO-stained vacuoles. […] Frozen OCT-fixed livers were cryosectioned at […] and stained using a conventional ORO staining technique, which stains for neutral lipids.
Diet-induced obese (DIO) mouse models can recapitulate the endocrine and metabolic dysfunction observed in obese humans, and thus serve as ideal preclinical models fortesting novel therapeutic compounds. To induce fatty liver or NAFL, male C57BL/6 mice (n=10 vehicle; n=10 CB1 NAM) are fed a high fat diet (60% calories from fat, TD.06414) for a minimum of 8 weeks starting at 6 weeks of age. Control mice (n=10; vehicle TD.08806) are fed a diet consisting of 10% calories from fat. Mice are weighed weekly to monitor weight gain, and food consumption assessed as the average amount of food consumed per day to determine a potential central effect on appetite suppression. […] Mice are dosed daily with 5 or 10 mg/kg indole-oxadiazole or vehicle (5% ethanol: 5% Tween 80:90% saline) by i.p. administration. After 28 days of administration, glucose tolerance and insulin tolerance tests are conducted on separate days. Blood is collected by terminal cardiac puncture under isoflurane anesthetic followed by cervical dislocation to collect sufficient volumes for the subsequent measurement of multiple analytes (insulin, ALT, triglycerides, adiponectin, leptin). Liver is weighed and collected in formalin (H&E staining for histopathology) and OCT (Oil Red O staining for lipid) or snap frozen for mRNA, protein and the assessment of hepatic triglycerides. Gene expression analyses is conducted to assess the levels of CB1 receptor, FAAH, and various lipogenic and fatty acid transport genes.

A further data set deals with T1, cannabinoid CB1 receptor (Homo sapiens, UniProt P21554).
T1 construct: host or cells: HEK293 CB1 β-arrestin cells
T1 sequence (P21554 whole entry): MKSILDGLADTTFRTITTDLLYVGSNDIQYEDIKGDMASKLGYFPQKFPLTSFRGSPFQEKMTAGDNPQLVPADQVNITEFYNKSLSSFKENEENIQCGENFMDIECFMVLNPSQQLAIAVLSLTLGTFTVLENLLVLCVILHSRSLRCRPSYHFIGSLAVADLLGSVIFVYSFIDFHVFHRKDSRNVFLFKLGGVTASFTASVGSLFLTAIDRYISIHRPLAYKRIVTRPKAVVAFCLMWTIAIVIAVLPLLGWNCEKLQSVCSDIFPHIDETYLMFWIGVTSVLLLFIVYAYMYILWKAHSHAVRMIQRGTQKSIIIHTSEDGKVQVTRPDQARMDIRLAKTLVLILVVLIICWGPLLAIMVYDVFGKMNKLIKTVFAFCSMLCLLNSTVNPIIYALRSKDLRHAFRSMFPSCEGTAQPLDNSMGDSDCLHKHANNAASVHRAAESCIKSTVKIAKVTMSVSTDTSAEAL
Kind of data set: PathHunter β-Arrestin assay (allosteric inhibition of agonist Emax). The class given is cell-based. To be noted: FIG. 1; agonist CP55,940; calculated by GraphPad Prism; read-out: IC50 for reduction of Emax of CP55,940.

Another data set relates to DATKO mice. Briefly: Open field test in DATKO mice and WT littermates. To be noted: 10 mg/kg; for Locomotor Activity (total distance traveled) / Stereotypy (total stereotypic movements) / Vertical Activity (total): mean±SEM. It is filed as in vivo. The source says: DAT1/SLC6A3 gene polymorphism associations have been identified in various psychiatric disorders, including ADHD, BD and SCZ. Also, in line with reduced functioning of the dopamine transporter (DAT) in BD patients, mice without functioning DAT display behavioural abnormalities that model mania observed in BD and that mimic positive symptoms in SCZ. These mice are accepted as a model for assessing the effects of novel small molecules that may have utility in modulating the dopamine dysfunction; deficits respond to both lithium and antipsychotics (Beaulieu et al., 2004; Gainetdinov et al., 1999; Ralph et al., 2001).
Adult (>P70) GluN1-knockdown (GluN1KD—F1: C571Bl/6J x 129S1/SvlmJ) and DAT-knockout (DATKO—C57Bl/6J), balanced for sex, were treated with either vehicle (1:1:18-Tween80:95% ethanol:saline) or a novel CB1 negative allosteric modulator (CB1 NAM), ABM300, at 10 mg/kg, was tested in behavioural assays, and compared to littermate controls. Locomotor, stereotypic movements and vertical activity were tested, along with anxiety/mania and sensorimotor gating behaviours. All data were analyzed with two- or three-way ANOVA, as appropriate, and corrected for multiple comparisons.
Classically, locomotor output has been used as a gold standard for the measure of dopamine system dysfunction. The role of dopamine in movement control is well defined and, in its simplest forms, testing for hyperactivity is based on the premise that enhanced dopaminergic activity in rodents leads to enhanced motor activity (van den Buuse et al., 2010). Locomotor, stereotypic and vertical activity was recorded using digital activity monitors, quantifying horizontal and vertical activity, along with repetitive behaviour, via infrared beam breaks. GluN1 KD and DATKO display basal hyperactivity, with increases in stereotypic behaviours which can be ameliorated with antipsychotics (Peleg-Raibstein et al., 2008).

Data set [1] is described as follows: Rat liver microsomal stability assay. To be noted: pooled rat liver microsomes 0.5 mg/mL, 3 μM compound, NADPH, 37° C., 45 min. It is filed as in vitro ADME. Here is the method: Metabolic stability of indole-oxadiazole derivatives of Formula I was measured by determination of the rate of compound disappearance when incubated in the presence of human or rat liver microsomes. Liver microsomes are prepared from the endoplasmic reticulum of hepatocytes and are the primary source of the most important enzymes (cytochrome P450) involved in drug metabolism. Study of drug stability in the presence of liver microsomes is accepted as a valuable model permitting rapid prediction of in vivo drug stability.
Human and rat liver microsomes were obtained from commercial sources. Test compounds (3 μM) were incubated with pooled liver microsomes (male and female). Samples were incubated for a 45 minute period and removed at 5 time points and test compounds were analysed by LC-MS/MS.
Microsomes (final protein concentration 0.5 mg/mL), 0.1 M phosphate buffer pH 7.4, and test compound (final concentration 3 μM; diluted from 10 mM stock solution to give a final DMSO concentration of 0.25%) were incubated at 37° C. prior to the addition of NADPH (final concentration 1 mM) to initiate the reaction. The final incubation volume was 25 μL. A control incubation was included for each compound tested, where 0.1 M phosphate buffer pH 7.4 was added instead of NADPH. The control compounds testosterone and 7-hydroxycoumarin were included in each experiment and all incubations were performed singularly for each compound.
Each compound was incubated for 0, 5, 15, 30, and 45 minutes. The control (minus NADPH) was incubated for 45 minutes only. The reactions were stopped by the addition of 50 μL methanol containing internal standard at the appropriate time points. The incubation plates were centrifuged at 2500 rpm for 20 minutes at 4° C. to precipitate the protein.
Following protein precipitation, the sample supernatants were combined in cassettes of up to 4 compounds and analysed using standard LC-MS/MS conditions.
From a plot of the natural logarithm of the peak area ratio (i.e., the ratio of compound peak area:internal standard peak area) against time, the gradient of the line was determined. Subsequently, half-life and intrinsic clearance were calculated using the equations below:
Eliminated rate constant (k)=(−gradient).
(In general: Liver microsomes are a subcellular fraction often used to study metabolism.)

The mark [2] stands for this setting: HFD 8 weeks, then 10 mg/kg daily for 4 weeks.
[3] abbreviates: HFD 8 weeks, then 10 mg/kg daily for 4 weeks, non-fasted mice.
[4] abbreviates: mouse model of fatty liver disease.

“Also recorded” adds a separate entry of the source.

In general, IC50 refers to the midpoint of a concentration-inhibition curve. What is called melting point is the temperature, or range, at which the solid turns liquid. As to `CCc1c(-c2nnc(Nc3ccccc3)o2)[nH]c2ccc(Cl)cc12` [ABM300, 5-(5-Chloro-3-ethyl-1H-indol-2-yl)-N-phenyl-1,3,4-oxadiazol-2-amine], the melting point was in the range of 252 to 254 °C. Besides, in the data set on mice fed a HFD diet (setting [2]), the “Hepatic Triglycerides” value worked out at 48.9 ± 14.6 mg/g tissue weight and the “Serum ALT (ALT activity)” value is reported as 18.1 ± 4.0 U/L. In addition, in the data set on mice fed a HFD diet (setting [3]), the “Oil Red O (ORO) stained liver sections (in words)” value is “smaller ORO-stained vacuoles”; the “effect on macrovesicular and microvesicular steatosis, H&E stained liver sections (in words)” value is “reduces the macrovesicular and microvesicular steatosis; also recorded: cytoplasmic clearing characteristic of glycogen accumulation”. For the same molecule, in the data set with mice fed a HFD diet (setting [4]), the “effect on levels of triglycerides (in words)” value was “significantly reduces” and the “effect on serum ALT (in words)” value is on record as “significantly reduces”. Also, at cannabinoid CB1 receptor, the concentration for half-maximal inhibition (IC50) is 1 nM. Moreover, the “effect on hyperactivity (in words)” value in the data set on DATKO mice (DATKO mice) is given as “reduces hyperactivity”. In the data set on DATKO mice (DATKO mice, open field), the “effect on abnormal stereotypic behaviours (in words)” value is “reduces abnormal stereotypic behaviours”, the “effect on abnormal vertical exploration (risk-taking behaviour) (in words)” value was “reduces abnormal vertical exploration”, the “Locomotor Activity (total distance traveled)” value worked out at 13120 ± 1961 cm and the “Stereotypy (total stereotypic movements)” value was found to be 900 ± 96. Moreover, in the data set with DATKO mice (DATKO mice, open field), the “Vertical Activity (total)” value was 530 ± 101. In addition, in the data set on DATKO mice (WT (C57Bl/6J) mice, open field), the “Locomotor Activity (total distance traveled)” value is reported as 1851 ± 378 cm, the “Stereotypy (total stereotypic movements)” value was determined as 533 ± 69 and the “Vertical Activity (total)” value stood at 262 ± 69. Moreover, in data set [1], the “Microsomal stability T1/2 Rat” value worked out at 1.83 h.
